Measured values reported in patent US7736624B2, “Methods and compositions for diagnostic and therapeutic targeting of COX-2” (priority 2006, dated 2010).
Entries after “also recorded” stand apart in the source; their conditions may differ. One block for each compound: values may come before it.

Key:
[1] = system: RAW264.7 cells; assay: In vitro cell imaging, LPS/IFNγ-activated RAW264.7 cells; format: cell-based, mouse; details: for fluorescence imaging of cells: 200 nM, 30 minutes, LPS-activated RAW264.7; for fluorescent signal after indomethacin pretreatment: indomethacin (20 μM) pretreatment, RAW264.7
Procedure: RAW264.7 cells (a line established from a tumor induced in a mouse by Abelson murine leukemia virus and available from the American Type Culture Collection, Manassas, Va., United States of America) were grown overnight on 35 mm culture dishes (MatTek Corp., Ashland, Mass., United States of America) with glass coverslips in Dulbecco's Modified Eagle Medium (DMEM) plus 10% heat-inactivated fetal bovine serum (FBS). Platings of cells were done in order to reach 30% confluency the next day. After overnight growth, the growth medium was replaced with 2 ml serum-free DMEM per dish. Individual dishes then received 200 ng/ml LPS plus 10 units/ml murine IFNγ (Roche Applied Science, Indianapolis, Ind., United States of America) for 6 hours to induce COX-2. […] After 30 minutes, the cells were washed briefly three times in medium and incubated in Hank's balanced salt solution (HBSS)/Tyrode's for 60 minutes at 37° C. After 60 minutes, the HBSS/Tyrode's was removed and fresh HBSS/Tyrode's was added. The cells were immediately imaged using a Zeiss Axiovert 25 Microscope (propidium iodide filter/2-3 sec exposure/gain of 2).

[2] = system: 1483 Head/Neck Squamous Cell Carcinoma Cells; assay: In vitro cell imaging, 1483 Head/Neck Squamous Cell Carcinoma Cells; format: cell-based; details: 1483 cells
[3] = system: COX-2-transformed HEK293 cells; assay: In vitro cell imaging, HEK293 cells expressing human COX-2; format: cell-based; details: HEK293/COX-2; for fluorescent staining of cells: 200 nM; for fluorescent staining after indomethacin pretreatment: indomethacin (20 μM) pretreatment
Procedure: A second experimental design employed HEK293 cells (a cell line generated by transformation of human embryonic kidney cell cultures with adenovirus) that had been transformed with an expression construct encoding a constitutively active human COX-2. For imaging experiments, cells were also plated on 35 mm culture dishes (MatTek Corp., Ashland, Mass., United States of America) with glass coverslips and grown to 70% confluency in DMEM plus 20% FBS. When the appropriate confluency was reached (approximately 48 hours after plating), the medium was replaced with DMEM/1% FBS and exposed to 200 nM Compound 27vv or Compound 27ww as described hereinabove. After 30 minutes, the cells were washed briefly 3 times and incubated in DMEM/10% FBS for 60 minutes at 37° C. After 60 minutes, the medium was removed and the cells were washed with HBSS/Tyrode's. After the second wash, fresh HBSS/Tyrode's was added and the cells were immediately imaged using a Zeiss Axiovert 25 Microscope (propidium iodide filter/3 sec exposure/gain of 3).

[4] = system: liver tumors from SW620 cells; assay: In vivo imaging of nude mice with liver metastases of SW620 cells; details: 5 mg/kg i.p.
From the text: Nude mice with liver tumors from SW620 cells (a human colorectal adenocarcinoma cell line that expresses a low level of COX-2 and that is available from ATCC) were obtained from Dr. Ray DuBois of the Vanderbilt-Ingram Cancer Center of Vanderbilt University (Nashville, Tenn., United States of America). Mice were obtained about 8-10 weeks after metastasis of the cells from the spleen. Control mice and mice bearing and tumor metastases were anesthetized and injected intraperitoneally (i.p.) with 5 mg/kg Compound 27vv. Images of injected mice were captured by a XENOGEN® IVIS® Imaging System (Xenogen Corp., Alameda, Calif., United States of America) using a Cy5.5 filter or a DsRed filter (1 second exposure/f2/high resolution/1.5 cm depth). […] At 5 hours post-injection, mice were euthanized and liver tumors were imaged by fluorescence microscopy.

[5] = system: HCA7 colorectal adenocarcinoma cells; assay: In vivo imaging of nude mice xenografted with HCA7 cells; details: HCA7 subcutaneous xenograft
From the text: In parallel experiments, nude mice were xenografted with a subcutaneous injection on a lateral side of 1×10^6. HCA7 colorectal adenocarcinoma cells (Marsh et al. (1993) J Pathol 170:441-450).

[6] = Amounts of intact compound in tumors and normal tissues by HPLC-UV/MS; format: in vivo, Nude mice
From the text: Additionally, the presence of intact Compound 27vv in tumors and normal tissues were examined by high performance liquid chromatography (HPLC) and mass spectroscopy (MS). Tumors and other tissues were collected from treated mice and immediately frozen on dry ice. Tissues were homogenized in Tris buffer (pH=7.4) and proteins precipitated with acetonitrile (ACN). Protein pellets were collected by centrifugation and dried before reconstitution in Tris buffer pH 7.4 plus 10% methanol. Proteins were purified by reverse-phase solid=phase extraction (RP-SPE) and analyzed by HPLC-UV using the conditions set forth in Table 4:
A standard curve was generated for Compound 27vv between 1 and 15 nmoles. Linear regression analysis generated an equation for the resulting line of y=311624x+85461 (R^2=0.9956). Various normal and tumor samples were then analyzed and the amounts of Compound 27vv present in the samples were determined.
The putative Compound 27vv peak in the tumor samples was collected and analyzed by LCMS in order to verify its identity.

SMILES: COc1ccc2c(c1)c(CC(=O)NCCCCNC(=O)c1ccc(C3=c4cc5c6c(c4Oc4c3cc3c7c4CCCN7CCC3)CCC[N+]=6CCC5)c(C(=O)[O-])c1)c(C)n2C(=O)c1ccc(Cl)cc1 [Compound 27eee]
fluorescence imaging of cells [1]: good specific staining; also recorded: consistent fluorescent signals over control cells
fluorescent signal after indomethacin pretreatment [1]: reducible by pretreatment with indomethacin
fluorescent staining of cells ([2]; 200 nM): good specific staining; also recorded: considerable fluorescence
fluorescent staining after indomethacin pretreatment ([2]; indomethacin pretreatment): reducible by pretreatment with indomethacin
fluorescent staining of cells [3]: good specific staining; also recorded: fluorescence above the level observed in control HEK293 cells
fluorescent staining after indomethacin pretreatment [3]: reducible by pretreatment with indomethacin

level in normal liver tissue ([6]; HPLC and MS): below the limit of detection
Amount of Compound 27vv in sample ([6]; Mouse 1 - giant tumor A): 3.3 nmol
Compound 27vv ([6]; Mouse 1 - giant tumor A): 31.1 nmol/g
Amount of Compound 27vv in sample ([6]; Mouse 1 - giant tumor B): 1.8 nmol
Compound 27vv ([6]; Mouse 1 - giant tumor B): 15.3 nmol/g
Amount of Compound 27vv in sample ([6]; Mouse 1 - giant tumor C): 4.7 nmol
Compound 27vv ([6]; Mouse 1 - giant tumor C): 41.1 nmol/g
Amount of Compound 27vv in sample ([6]; Mouse 1 - giant tumor D): 0.2 nmol
Compound 27vv ([6]; Mouse 1 - giant tumor D): 0.9 nmol/g
Compound 27vv nmol/g ([6]; Mouse 2 - normal liver lobe): <Std. A
Compound 27vv nmol/g ([6]; Mouse 2 - small tumor): <Std. A
Compound 27vv nmol/g ([6]; Mouse 2 - tissue between the lobes): <Std. A
SMILES: COc1ccc2c(c1)c(CC(=O)NCCCCNC(=O)c1ccc(C(=O)[O-])c(C3=c4cc5c6c(c4Oc4c3cc3c7c4CCCN7CCC3)CCC[N+]=6CCC5)c1)c(C)n2C(=O)c1ccc(Cl)cc1 [Compound 27vv]
fluorescence imaging of cells [1]: LPS activation enhanced imaging; also recorded: consistent fluorescent signals over control cells
fluorescent signal after indomethacin pretreatment [1]: reduced the fluorescent signal
in vivo fluorescence imaging ([4]; 30 minutes and 3-4 hours post-injection): liver-specific imaging
fluorescence microscopy of excised liver tumors ([4]; 5 hours post-injection): strongly fluoresced
tumor fluorescence in vivo and after removal of tumor masses [5]: strong tumor-specific fluorescence
intact compound in SW620 tumors ([6]; 5 hours post-injection, HPLC and MS): confirmed the presence of intact Compound 27vv
fluorescent staining of cells [3]: clearly observable fluorescent staining; also recorded: fluorescence above the level observed in control HEK293 cells
fluorescent staining after indomethacin pretreatment [3]: reduced
